Where a name gives a salt, the structure may show the parent alone.

The term melting point denotes the temperature, or range, at which the solid turns liquid. Take `NCCCCCCNc1nc(-c2ccncc2)cc(=O)n1CCc1ccccc1` (as salt: hydrochloride): the melting point lay within 225 to 228 °C.
Molecule `CCNc1nc(-c2ccncc2)cc(=O)n1C` (as salt: oxalate) [Compound 36, 2-(ethylamino)-3-methyl-6-pyridin-4-ylpyrimidin-4(3H)-one] had a melting point of 239 to 241 °C.
To `CNCc1ccc(CCN(C)c2nc(-c3ccncc3)cc(=O)n2C)cc1` (as salt: hydrochloride) [Compound 75, 3-Methyl-2-{methyl-[2-(4-methylaminomethyl-phenyl)-ethyl]-amino}-6-pyridin-4-yl-3H-pyrimidin-4-one] belongs 157 to 160 °C; to `Cn1c(NC2Cc3ccccc3C2)nc(-c2ccncc2)cc1=O` [Compound 37, 2-[(indan-2-yl)amino]-3-methyl-6-pyridin-4-ylpyrimidin-4(3H)-one], 211.5 to 211.8 °C.
Next, `Cn1c(NCCCc2ccccc2)nc(-c2ccncc2)cc1=O` (as salt: hydrochloride) [Compound 96, 3-Methyl-2-(3-phenyl-propylamino)-6-pyridin-4-yl-3H-pyrimidin-4-one]: 187 to 189 °C.
To `Cn1c(NCCc2cccc(F)c2)nc(-c2ccncc2)cc1=O` [Compound 6, 2-[[2-(3-fluorophenyl)ethyl]amino]-3-methyl-6-pyridin-4-ylpyrimidin-4(3H)-one] belongs 158.9 to 159.2 °C.
On to `Cn1c(NCCC2CCCC2)nc(-c2ccncc2)cc1=O` [Compound 66, 2-(2-Cyclopentyl-ethylamino)-3-methyl-6-pyridin-4-yl-3H-pyrimidin-4-one], for which the melting point lay within 190 to 194 °C.
To `Cn1c(NCc2cccc(OCCCc3ccncc3)c2)nc(-c2ccncc2)cc1=O` (as salt: hydrochloride) [Compound 81, 3-Methyl-6-pyridin-4-yl-2-[3-(3-pyridin-4-yl-propoxy)-benzylamino]-3H-pyrimidin-4-one] belongs 210 to 213 °C; to `NCCCCCCn1c(NCCc2ccccc2)nc(-c2ccncc2)cc1=O` (as salt: hydrochloride), 125 to 127 °C.
To `Cn1c(NCCCc2ccccc2)nc(-c2ccncc2)cc1=O` [Compound 78, 3-Methyl-2-(3-phenyl-propylamino)-6-pyridin-4-yl-3H-pyrimidin-4-one] belongs 122 to 124 °C; to `Cn1c(NCCc2ccccn2)nc(-c2ccncc2)cc1=O` [Compound 97, 3-Methyl-6-pyridin-4-yl-2(2-pyridin-2-yl-ethylamino)-3H-pyrimidin-4-one], 154 to 156 °C (dec.); to `NCCCCNc1nc(-c2ccncc2)cc(=O)n1Cc1ccccc1` (as salt: hydrochloride) [Compound 90, 2-(4-Amino-butylamino)-3-benzyl-6-pyridin-4-yl-3H-pyrimidin-4-one], 163 to 168 °C (dec.).
To `CCCCNc1nc(-c2ccncc2)cc(=O)n1C` [Compound 47, 2-Butylamino-3-methyl-6-pyridin-4-yl-3H-pyrimidin-4-one] belongs 180 to 182 °C; to `CCCCCCNc1nc(-c2ccncc2)cc(=O)n1C` [Compound 49, 2-Hexylamino-3-methyl-6-pyridin-4-yl-3H-pyrimidin-4-one], 133 to 135 °C.
The molecule `Cn1c(NCCOc2ccccc2)nc(-c2ccncc2)cc1=O` [Compound 94, 3-Methyl-2-(2-phenoxy-ethylamino)-6-pyridin-4-yl-3H-pyrimidin-4-one] had a melting point of 193 to 194 °C.
Next, `NCCCCCCNc1nc(-c2ccncc2)cc(=O)n1Cc1ccccc1` (as salt: hydrochloride): 292 to 298 °C; `Cn1c(NC2CCCCC2)nc(-c2ccncc2)cc1=O` [Compound 46, 2-Cyclohexylamino-3-methyl-6-pyridin-4-yl-3H-pyrimidin-4-one]: 268 to 270 °C.
To `NCCCCn1c(NCCCc2ccccc2)nc(-c2ccncc2)cc1=O` (as salt: hydrochloride) [Compound 80, 3-(4-Amino-butyl)-2-(3-phenyl-propylamino)-6-pyridin-4-yl-3H-pyrimidin-4-one] belongs 124 to 127 °C.
As to `Cn1c(NCCCCCN)nc(-c2ccncc2)cc1=O` (as salt: hydrochloride) [Compound 40, 2-(5-Amino-pentylamino)-3-methyl-6-pyridin-4-yl-3H-pyrimidin-4-one], the melting point was in the range of 259 to 262 °C.
In turn, `Cn1c(NCCCC2CCCCC2)nc(-c2ccncc2)cc1=O` [Compound 58, 2-(3-Cyclohexyl-propylamino)-3-methyl-6-pyridin-4-yl-3H-pyrimidin-4-one] yielded a melting point of 177 to 180 °C.
To `Cn1c(NCCCCCO)nc(-c2ccncc2)cc1=O` [Compound 61, 2-(5-Hydroxy-pentylamino)-3-methyl-6-pyridin-4-yl-3H-pyrimidin-4-one] belongs 164 to 165 °C.
To `NCCCCCn1c(NCCc2ccccc2)nc(-c2ccncc2)cc1=O` (as salt: hydrochloride) [Compound 88, 3-(5-Amino-pentyl)-2-phenethylamino-6-pyridin-4-yl-3H-pyrimidin-4-one] belongs 178 to 180 °C; to `Cn1c(NCC2CCCCC2)nc(-c2ccncc2)cc1=O` [Compound 56, 2-(Cyclohexylmethyl-amino)-3-methyl-6-pyridin-4-yl-3H-pyrimidin-4-one], 218 to 220 °C; to `Cn1c(NCCc2ccc(N)cc2)nc(-c2ccncc2)cc1=O` [Compound 11, 2-[[2-(4-aminophenyl)ethyl]amino]-3-methyl-6-pyridin-4-ylpyrimidin-4(3H)-one], 197.3 to 197.5 °C.
To `Cn1c(N2CCCCC2)nc(-c2ccncc2)cc1=O` (as salt: tartrate) [Compound 38, 2-(piperidin-1-yl)-3-methyl-6-pyridin-4-ylpyrimidin-4(3H)-one] belongs 228 to 230 °C; to `Cn1c(NCCc2ccc(F)cc2)nc(-c2ccncc2)cc1=O` [Compound 7, 2-[[2-(4-fluorophenyl)ethyl]amino]-3-methyl-6-pyridin-4-ylpyrimidin-4(3H)-one], 178.8 to 178.9 °C.
`CC(=O)OC(CNc1nc(-c2ccncc2)cc(=O)n1C)c1ccccc1` (stereo not shown) [Compound 69, Acetic acid 2-(1-methyl-6-oxo-4-pyridin-4-yl-1 ,6-dihydro-pyrimidin-2-ylamino)-1-phenyl-ethyl ester] showed a melting point of 81 to 84 °C.
Turning to `CCCCCCCNc1nc(-c2ccncc2)cc(=O)n1C` [Compound 50, 2-Heptylamino-3-methyl-6-pyridin-4-yl-3H-pyrimidin-4-one], the melting point was in the range of 121 to 123 °C.
To `Cn1c(NCCCCO)nc(-c2ccncc2)cc1=O` [Compound 62, 2-(4-Hydroxy-butylamino)-3-methyl-6-pyridin-4-yl-3H-pyrimidin-4-one] belongs 159 to 161 °C; to `Cn1c(NCc2cccc(CN)c2)nc(-c2ccncc2)cc1=O` (as salt: hydrochloride), 193 to 197 °C.
Next, `NCCn1c(NCCCc2ccccc2)nc(-c2ccncc2)cc1=O` (as salt: hydrochloride) [Compound 84, 3-(2-Amino-ethyl)-2-(3-phenyl-propylamino)-6-pyridin-4-yl-3H-pyrimidin-4-one]: 145 to 148 °C.

Source of the values: patent publication US7378413B2, “2-amino-3-(alkyl)-pyrimidone derivatives” (Sanofi Aventis, priority 2000, dated 2008).
